Test results published in the supplement of paper PMC10011410.
± gives the standard deviation of the averaged measurements.

Key:
U-2 OS [1] = assay: relative cell count vs DMSO (cell painting) (fraction of DMSO control); higher = more cells remaining (less cytotoxic); settings: 24 h
Method in brief: (§1)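 Images taken on an Opera Phenix of U-2 OS cells stained with MitoTracker, concanavalin A, phalloidin, wheat germ agglutinin, Hoechst and SYTO 14 were processed in CellProfiler, with features normalized to DMSO cells on the same plate. The cells, about 1,500 per well in 384-well plates, had been treated by pin tool for 24 h at 37 °C, usually at six 2-fold concentrations from 20 μM to 625 nM. The activity score measures Mahalanobis distance from DMSO wells, and cell count is expressed relative to DMSO wells. Each value averages four replicate plates.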

U-2 OS [2] = assay: cell painting activity score (Mahalanobis distance from DMSO wells); higher = stronger morphological phenotype; settings: 24 h
Method in brief: as §1

U-2 OS [3] = assay: AUC of culture confluence over time (live-cell imaging) (AUC (confluence % x time)); higher = more confluent culture (less growth inhibition)
Method in brief: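 The value is the area under the curve of confluence plotted against time. U-2 OS cells in F-12K medium with 10% FBS were seeded at 750 per well in 384-well plates, then treated by pin tool 24 h later, most compounds at 20, 10 and 5 μM with 0.2% DMSO. At 37 °C, an Incucyte S3 with a 10x objective imaged the wells every 4 h for up to 60 h.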

U-2 OS [4] = assay: cell viability (CellTiter-Glo) relative to DMSO (% of control); higher = more viable; settings: 24 h
Description: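 Cell viability of U-2 OS cells by CellTiter-Glo after 24 h compound treatment at 5, 10 and 20 uM (some at 40 and 80 uM), measured in parallel with the glutathione assay, as percent of DMSO control. Five technical replicate plates, averaged.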

U-2 OS [5] = assay: intracellular GSH:GSSG ratio (calculated); higher = more reduced glutathione pool; settings: 24 h
Description: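 Intracellular glutathione in U-2 OS cells after 24 h compound treatment at 5, 10 and 20 uM (some at 40 and 80 uM). Total glutathione and GSSG were measured with the GSH/GSSG-Glo kit, and the GSH:GSSG ratio was calculated. Mean of five technical replicate plates.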

U-2 OS [6] = assay: total intracellular glutathione (GSH + GSSG) relative to DMSO (% of control); higher = more glutathione; settings: 24 h
Description: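 Total intracellular glutathione (GSH + GSSG) in U-2 OS cells by GSH/GSSG-Glo after 24 h compound treatment at 5, 10 and 20 uM (some at 40 and 80 uM), as percent of DMSO control. Five technical replicate plates, averaged.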

SMILES	relative cell count (U-2 OS [1]; 0.625 µM)	relative cell count (U-2 OS [1]; 1.25 µM)	relative cell count (U-2 OS [1]; 2.5 µM)	relative cell count (U-2 OS [1]; 5 µM)	relative cell count (U-2 OS [1]; 10 µM)	relative cell count (U-2 OS [1]; 20 µM)	cell painting activity score (U-2 OS [2]; 0.625 µM)	cell painting activity score (U-2 OS [2]; 1.25 µM)	cell painting activity score (U-2 OS [2]; 2.5 µM)	cell painting activity score (U-2 OS [2]; 5 µM)	cell painting activity score (U-2 OS [2]; 10 µM)	cell painting activity score (U-2 OS [2]; 20 µM)	AUC of culture confluence over time (U-2 OS [3]; 5 µM)	AUC of culture confluence over time (U-2 OS [3]; 10 µM)	AUC of culture confluence over time (U-2 OS [3]; 20 µM)	cell viability (U-2 OS [4]; 5 µM)	cell viability (U-2 OS [4]; 10 µM)	cell viability (U-2 OS [4]; 20 µM)	intracellular GSH:GSSG ratio (U-2 OS [5]; 5 µM)	intracellular GSH:GSSG ratio (U-2 OS [5]; 10 µM)	intracellular GSH:GSSG ratio (U-2 OS [5]; 20 µM)	total intracellular glutathione (U-2 OS [6]; 5 µM)	total intracellular glutathione (U-2 OS [6]; 10 µM)	total intracellular glutathione (U-2 OS [6]; 20 µM)	cell viability (U-2 OS [4]; 40 µM)	cell viability (U-2 OS [4]; 80 µM)	intracellular GSH:GSSG ratio (U-2 OS [5]; 40 µM)	total intracellular glutathione (U-2 OS [6]; 40 µM)	total intracellular glutathione (U-2 OS [6]; 80 µM)
O=[N+]([O-])c1c(Cl)cc(Cl)c2nsnc12	0.967	0.626	0.447	0.222	0.02	0.0161	5.1	10.7	14.1	17.8	25.1	24.4	19.8	10.2	8	88.3 ± 13	52.4 ± 10	19.5 ± 8.6	13.9	6.83	2.56	116 ± 6.5	81.7 ± 6	48.7 ± 3.5					
Oc1cccc(O)c1O	0.96	0.998	0.978	1.02	0.974	0.973	3.4	4.83	3.93	3.87	5.49	5.54	46.4	48	38.4	82.2 ± 6.1	35.7 ± 10	0.451 ± 0.23	22.7	8.34	5.48	82.6 ± 6.4	48.8 ± 13	3.4 ± 0.69	0.221 ± 0.03	0.263 ± 0.059	1.66	2.67 ± 0.16	2.53 ± 0.23
c1ccc(Nc2nc(-c3ccccc3)ns2)cc1	0.915	0.89	0.908	0.925	0.958	0.841	4.12	4.49	4.32	5.01	9.5	11.4	49.5	46.8	49.1	98.7 ± 3	95.3 ± 1.7	97.7 ± 4	23.1	14.2	15.3	104 ± 6.9	96.4 ± 2.9	98.2 ± 2.9					
O=C(CCCCCCC(=O)Nc1ccccc1)NO	1.01	0.936	0.838	0.776	0.491	0.438	9.26	11.1	12	12	17.1	14.8	20.3	17.9	18.6	55.2 ± 5.3	49.6 ± 3	44 ± 2	8.04	6.39	4.82	60.5 ± 3.5	47.6 ± 4.1	39.5 ± 5.2					
